{"source": "patent US20150218638A1", "about": "“METHODS FOR ASSESSMENT OF PEPTIDE-SPECIFIC IMMUNITY” (priority 2012, published 2015)", "tested_on": "heparinized whole blood", "test": "Ex vivo induction of immune-function-related mRNA in heparinized whole blood, real time PCR", "type": "cell-based", "settings": "37° C., 4 hours, vs PBS", "data": [{"substance": "leucoagglutinin [PHA-L]", "values": [{"measurement": "CCL4 mRNA induction", "result": "induced"}, {"measurement": "CTLA4 mRNA induction", "result": "induced"}, {"measurement": "CXCL3 mRNA induction", "result": "induced"}, {"measurement": "CXCL10 mRNA induction", "result": "induced"}, {"measurement": "GMCSF mRNA induction", "result": "induced"}, {"measurement": "IFNG mRNA induction", "result": "induced"}, {"measurement": "IL4 mRNA induction", "result": "induced"}, {"measurement": "IL10 mRNA induction", "result": "induced"}, {"measurement": "TNFSF2 mRNA induction", "result": "induced"}, {"measurement": "beta actin (ACTB) mRNA induction (control housekeeping gene)", "result": "not induced"}]}]}
